# Test results from ChEMBL document CHEMBL1201862, “PubChem BioAssay data set” (2004).
# Calls of active or inactive are those of the source.
# Legend:
# Cytochrome P450 1A2 = biological target: T1, Cytochrome P450 1A2 (Homo sapiens, UniProt P05177);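 further: PubChem cytochrome P450 panel assay, CYP1A2 panel member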
# T1 sequence (P05177 whole entry): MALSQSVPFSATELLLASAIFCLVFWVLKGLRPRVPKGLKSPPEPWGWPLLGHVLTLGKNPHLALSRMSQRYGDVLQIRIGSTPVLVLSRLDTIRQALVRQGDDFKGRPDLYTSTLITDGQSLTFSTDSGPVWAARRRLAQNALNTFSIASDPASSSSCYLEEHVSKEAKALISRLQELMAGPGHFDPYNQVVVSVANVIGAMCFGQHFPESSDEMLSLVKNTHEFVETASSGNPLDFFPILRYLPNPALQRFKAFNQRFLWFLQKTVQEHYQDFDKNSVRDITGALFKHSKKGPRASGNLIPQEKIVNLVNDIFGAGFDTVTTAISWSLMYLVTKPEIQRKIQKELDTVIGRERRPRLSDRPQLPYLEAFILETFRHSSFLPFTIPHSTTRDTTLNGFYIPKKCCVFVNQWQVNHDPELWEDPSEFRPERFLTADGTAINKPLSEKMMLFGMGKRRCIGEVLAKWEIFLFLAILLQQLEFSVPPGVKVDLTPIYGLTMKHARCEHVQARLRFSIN
# [1] = Trypanosoma cruzi growth suppression in host cells – NIH3T3 host cells, beta-gal luminescence, confirmation (AID 2044); type: functional, cell-based;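 further: intracellular parasites grown in NIH/3T3 mouse fibroblasts as host cells; luminescent beta-galactosidase reporter signal from transgenic T. cruzi replicating inside host cells; inhibitors lower the luminescence signal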
# [2] = NIH3T3 cell viability loss – ATP luminescence, mouse fibroblasts, counter-screen, dose response (AID 2010); type: functional, cell-based;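 further: cells exposed to compound for about 90 hours before reading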
# Cytochrome P450 2C19 = Cytochrome P450 2C19 (Homo sapiens, UniProt P33261); assay: Cytochrome panel assay with activity outcomes. Panel member name: p450-cyp2c19 Compounds with AC50 equal or less than 10 uM are considered active; type: functional
# Sequence of Cytochrome P450 2C19 (P33261 whole entry): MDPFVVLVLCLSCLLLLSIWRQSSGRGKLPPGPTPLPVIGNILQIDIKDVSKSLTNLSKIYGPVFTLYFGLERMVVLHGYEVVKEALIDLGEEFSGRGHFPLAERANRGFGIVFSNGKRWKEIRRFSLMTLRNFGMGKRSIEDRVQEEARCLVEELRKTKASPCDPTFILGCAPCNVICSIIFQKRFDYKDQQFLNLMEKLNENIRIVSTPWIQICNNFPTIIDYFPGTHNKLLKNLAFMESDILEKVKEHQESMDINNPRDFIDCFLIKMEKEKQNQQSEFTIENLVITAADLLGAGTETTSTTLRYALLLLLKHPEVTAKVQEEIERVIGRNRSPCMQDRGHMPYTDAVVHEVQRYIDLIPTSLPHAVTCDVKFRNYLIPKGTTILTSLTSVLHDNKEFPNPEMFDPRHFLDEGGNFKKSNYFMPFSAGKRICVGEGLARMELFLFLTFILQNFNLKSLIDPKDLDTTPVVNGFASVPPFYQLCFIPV
# Cytochrome P450 2C9 = Cytochrome P450 2C9 (Homo sapiens, UniProt P11712)
# Sequence of Cytochrome P450 2C9 (P11712 whole entry): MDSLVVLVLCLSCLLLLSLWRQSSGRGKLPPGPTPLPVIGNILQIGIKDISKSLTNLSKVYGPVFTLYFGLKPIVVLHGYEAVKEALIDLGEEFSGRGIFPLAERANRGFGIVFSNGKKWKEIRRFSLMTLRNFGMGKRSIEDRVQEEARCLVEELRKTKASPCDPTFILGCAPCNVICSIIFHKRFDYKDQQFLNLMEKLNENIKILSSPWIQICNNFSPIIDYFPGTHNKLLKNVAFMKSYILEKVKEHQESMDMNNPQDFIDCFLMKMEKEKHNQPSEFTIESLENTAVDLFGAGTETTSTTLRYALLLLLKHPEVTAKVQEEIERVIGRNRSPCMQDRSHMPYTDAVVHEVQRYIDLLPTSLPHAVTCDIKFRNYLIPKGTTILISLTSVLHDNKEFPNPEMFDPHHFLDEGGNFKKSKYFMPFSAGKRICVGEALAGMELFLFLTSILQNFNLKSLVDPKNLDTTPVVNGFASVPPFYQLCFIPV
# [3] = system: Streptococcus sp. 'group A'; assay: Streptococcus pyogenes SK(-)GAS viability under kanamycin – luminescence, BacTiterGlo, confirmation, counter-screen for streptokinase expression inhibitor project, dose response (AID 1900); type: functional, organism-based
# Streptococcus = assay: GAS UMAA2166 growth inhibition – luminescence, BacTiterGlo, counter-screen for streptokinase expression inhibitor project, dose response (AID 1915); type: functional, organism-based;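 further: potency for reduction of bacterial viability or growth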
# Streptokinase A = biological target: T2, Streptokinase A (Streptococcus pyogenes serotype M1, UniProt P10520); assay: viability-normalized secreted streptokinase activity reduction – plasminogen activation absorbance, OD405, dose response (AID 1914); type: functional, Streptococcus pyogenes M1 GAS;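 further: secreted streptokinase activity via plasminogen activation per viability signal from cell pellet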
# T2 sequence (P10520 whole entry): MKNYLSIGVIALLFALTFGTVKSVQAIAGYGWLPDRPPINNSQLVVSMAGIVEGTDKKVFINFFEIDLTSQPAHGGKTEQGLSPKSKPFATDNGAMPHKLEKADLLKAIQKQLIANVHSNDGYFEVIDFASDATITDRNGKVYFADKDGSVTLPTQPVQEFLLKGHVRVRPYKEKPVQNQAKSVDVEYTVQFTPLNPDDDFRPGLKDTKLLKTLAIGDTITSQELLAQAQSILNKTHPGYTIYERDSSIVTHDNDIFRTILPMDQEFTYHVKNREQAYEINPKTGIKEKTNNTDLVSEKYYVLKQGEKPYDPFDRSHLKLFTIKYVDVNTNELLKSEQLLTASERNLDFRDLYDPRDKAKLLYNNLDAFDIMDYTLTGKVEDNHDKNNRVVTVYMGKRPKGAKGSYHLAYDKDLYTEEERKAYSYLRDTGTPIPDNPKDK
smiles,measurement,setting,value
COc1cccc(Cn2c(=O)c(C)nc3cnc(Oc4cccc(Cl)c4)nc32)c1,AC50,Cytochrome P450 1A2,25.1 µM (inconclusive)
Clc1ccc2c(c1)C=Nc1c(NCc3ccccc3)ncnc1O2,AC50,Cytochrome P450 1A2,0.631 µM (inconclusive)
CC(C)(CN1CCN(C(c2ccccc2)c2ccccc2)CC1)NS(=O)(=O)c1ccccc1,EC50,[1],1.7 µM (active)
same,EC50,[2],> 60 µM (not active)
O=C(O)CSCNC(=O)CC12CC3CC(CC(C3)C1)C2,AC50,Cytochrome P450 2C19; read-out: AC50,28.2 µM (inconclusive)
CC(CC(=O)O)(CC(=O)O)c1ccccc1,AC50,Cytochrome P450 2C19,inconclusive
O=C(NCC(c1cccs1)N1CCOCC1)c1ccco1 (configuration not stated),AC50,Cytochrome P450 2C9,22.4 µM (inconclusive)
Cn1cccc1C(=O)N1CCC[C@@]2(CCN(C(c3ccccc3)c3ccccc3)C2)C1,AC50,Cytochrome P450 2C9,39.8 µM (inconclusive)
same,AC50,Cytochrome P450 2C19; read-out: AC50,25.1 µM (inconclusive)
NC[C@@H](O)CSCc1ccc(Cl)cc1,AC50,Cytochrome P450 2C19; read-out: AC50,0.1 µM (inconclusive)
COC(=O)[C@@]1(Cc2ccc(F)cc2)[C@H]2c3cc(C(=O)N4CCCC4)n(Cc4ccc(Cl)c(C(F)(F)F)c4)c3C[C@H]2CN1C(=O)c1ccccc1,AC50,Cytochrome P450 2C19; read-out: AC50,31.6 µM (inconclusive)
COCCn1c(C)cc(C2=NN=C(Nc3ccc(F)cc3)SC2)c1C,AC50,Cytochrome P450 1A2,11.2 µM (inconclusive)
Cc1cc(N)n(-c2ccccc2)n1,AC50,Cytochrome P450 2C19; read-out: AC50,2.24 µM (inconclusive)
same,AC50,Cytochrome P450 1A2,31.6 µM (inconclusive)
COc1ccc(N/C=C2/Sc3ccccc3NC2=O)cc1,EC50,[1],1.22 µM (active)
same,EC50,[2],> 30 µM (not active)
CC1=CC(C)(C)Nc2ccc(CSc3ccccc3)cc21,AC50,Cytochrome P450 1A2,0.501 µM (inconclusive)
CNCCCCCCCCSc1nc(C(C)C)ccc1C(=O)c1cccs1,AC50,Cytochrome P450 2C9,25.1 µM (inconclusive)
Cc1nc2sccn2c(=O)c1Cl,AC50,Cytochrome P450 1A2,15.8 µM (inconclusive)
COCCNc1nc(-c2cccc(OC)c2)nc2ccccc12,AC50,Cytochrome P450 2C19; read-out: AC50,31.6 µM (inconclusive)
Cc1cc(C)n2nc(C(=O)NCc3cccc(C(F)(F)F)c3)nc2n1,EC50,[1],> 60 µM (not active)
same,EC50,[2],> 60 µM (inconclusive)
Cc1cc(C)c(-c2csc(NC(=O)c3cc([N+](=O)[O-])ccc3N3CCOCC3)n2)c(C)c1,EC50,[1],1.44 µM (active)
same,EC50,[2],> 30 µM (not active)
CC(C)N1CCN(Cc2ccc3c(c2)Cc2ccccc2-3)CC1CCO (configuration not stated),EC50,[1],0.532 µM (active)
same,EC50,[2],7.87 µM (active)
COc1ccc(-c2nc3cnc(Nc4ccccc4)nc3n(CCC#N)c2=O)cc1,AC50,Cytochrome P450 1A2,0.501 µM (inconclusive)
O=C(NNC(=S)NC(=O)c1cccnc1)c1ccc(Cl)cc1,EC50,[3],5.07 µM (active)
same,EC50,Streptococcus,11.4 µM (active)
CC(=O)Nc1ccc(NC(=O)CSc2nnc(-c3ccccc3)n2Cc2ccc3c(c2)OCO3)cc1,AC50,Cytochrome P450 1A2,31.6 µM (inconclusive)
O=C(O)c1ccc(N/N=C/c2ccc(-c3ccc(Br)cc3)o2)cc1,EC50,[3],4.26 µM (active)
same,EC50,Streptococcus,3.02 µM (active)
COc1cc2c(cc1OC)CN(C(=O)COc1ccc(C)c(C)c1)CC2,EC50,[1],2.93 µM (active)
same,EC50,[2],> 60 µM (not active)
CCc1ccc(Nc2n[n+](-c3ccccc3)c(-c3ccc(OCc4ccccc4)cc3)s2)cc1,EC50,[1],2.01 µM (active)
same,EC50,[2],> 30 µM (not active)
COc1cc(-c2nnc(SCC3(c4ccc(Br)cc4)OCCO3)o2)cc(OC)c1OC,AC50,Cytochrome P450 2C9,39.8 µM (inconclusive)
CC(=O)NC1(c2cccc(F)c2)CCN(CC(=O)NC(C)C)CC1,AC50,Cytochrome P450 2C19; read-out: AC50,39.8 µM (inconclusive)
Cc1cc(Cl)ccc1OCC(=O)N/N=C1\CCCc2ccccc21,AC50,Cytochrome P450 2C9,3.55 µM (inconclusive)
same,AC50,Cytochrome P450 1A2,2.51 µM (inconclusive)
COc1cc2nc(S)n3nc(COc4ccccc4C)nc3c2cc1OC,EC50,[3],4.21 µM (active)
same,EC50,Streptokinase A,> 150 µM (not active)
same,EC50,Streptococcus,10.5 µM (active)
CCOC(=O)c1c(NC(=O)COC(=O)c2ccc(C)s2)sc2c1CC(C)(C)NC2(C)C,EC50,[3],2.43 µM (active)
same,EC50,Streptokinase A,> 150 µM (not active)
same,EC50,Streptococcus,26.8 µM (active)
CCOC(=O)C1CCCN(C(=O)c2cc3nc(-c4ccc5c(c4)OCO5)cc(C(F)(F)F)n3n2)C1 (configuration not stated),AC50,Cytochrome P450 1A2,25.1 µM (inconclusive)
Cc1cccc(NC(=O)c2sc(Cl)nc2-c2ccccc2)c1,EC50,[3],5 µM (active)
same,EC50,Streptokinase A,> 150 µM (not active)
same,EC50,Streptococcus,19.3 µM (active)
CC1C(=O)C(C)C(c2ccc([N+](=O)[O-])cc2)NC1c1ccc([N+](=O)[O-])cc1 (configuration not stated),EC50,[1],0.632 µM (active)
same,EC50,[2],> 30 µM (not active)
O=C(NCC1CCN(Cc2ccccc2Cl)CC1)Nc1cccc(Cl)c1,EC50,[3],> 150 µM (not active)
same,EC50,Streptokinase A,49.3 µM (active)
same,EC50,Streptococcus,> 150 µM (not active)
O=C(NCCc1c[nH]c2ccccc12)[C@@H]1C[C@H]1[C@@H](NP(=O)(c1ccccc1)c1ccccc1)c1ccccc1,AC50,Cytochrome P450 1A2,15.8 µM (inconclusive)
Cc1[nH]c2ccc(F)cc2c1CCN(Cc1cccnc1)C(S)=NC(C)(C)C,EC50,[1],0.577 µM (active)
same,EC50,[2],> 60 µM (not active)
Cc1c(C(=O)OC(C)CCN(C)C)oc2ccccc12 (configuration not stated),EC50,[1],0.574 µM (active)
same,EC50,[2],> 30 µM (not active)
O=C(Oc1cccc(Br)c1)c1cccnc1,AC50,Cytochrome P450 2C9,39.8 µM (inconclusive)
same,AC50,Cytochrome P450 2C19; read-out: AC50,39.8 µM (inconclusive)
C=C1CCC2C(C)(C)[C@@H](O)CC[C@@]2(C)[C@@H]1COc1ccc2ccc(=O)oc2c1 (some centres not stated),EC50,[3],9.27 µM (active)
same,EC50,Streptokinase A,6.72 µM (active)
same,EC50,Streptococcus,> 150 µM (not active)
CCC(=O)OCN1C(=O)C=CC1=O,AC50,Cytochrome P450 2C19; read-out: AC50,0.002 µM (inconclusive)
CCn1cc(C(=O)OCC(=O)c2cc(C)n(-c3cccc(C(F)(F)F)c3)c2C)c(=O)c2ccc(C)nc21,EC50,[3],5.68 µM (active)
same,EC50,Streptokinase A,21.6 µM (active)
same,EC50,Streptococcus,> 50 µM (not active)
COc1ccc(CNc2ccnc(-c3ccc(C(=O)N(C)C)cc3)n2)c(OC)c1,AC50,Cytochrome P450 2C19; read-out: AC50,20 µM (inconclusive)
same,AC50,Cytochrome P450 1A2,12.6 µM (inconclusive)
FC(F)(F)c1cccc(NC(S)=NN=C(S)Nc2cccc(C(F)(F)F)c2)c1,EC50,[3],1.65 µM (active)
same,EC50,Streptococcus,4.04 µM (active)
CSc1ccccc1NC(=S)N/N=C/c1cccn1Cc1cccc(C)c1,EC50,[1],2.35 µM (active)
same,EC50,[2],> 60 µM (not active)
COc1ccccc1Nc1nc(N)nc(CSC(=S)N2CCN(c3ccccc3)CC2)n1,EC50,[1],2.57 µM (active)
same,EC50,[2],> 60 µM (not active)
Oc1ccc(Br)cc1/C=N/Nc1ncc(-c2ccccc2)cn1,EC50,[3],1.51 µM (active)
same,EC50,Streptococcus,2.68 µM (active)
O=C(NNc1ccccc1Cl)C(O)(c1cccc(C(F)(F)F)c1)c1cccc(C(F)(F)F)c1,EC50,[3],2.65 µM (active)
same,EC50,Streptokinase A,3.16 µM (active)
same,EC50,Streptococcus,17.4 µM (active)
C[N+](C)(CCCCCC[N+](C)(C)CCCN1C(=O)c2ccccc2C1=O)CCCN1C(=O)c2ccccc2C1=O,AC50,Cytochrome P450 2C19; read-out: AC50,31.6 µM (inconclusive)
same,AC50,Cytochrome P450 1A2,31.6 µM (inconclusive)
Cc1cc(Br)ccc1OCCN1CCCC1,EC50,[1],0.651 µM (active)
same,EC50,[2],58.7 µM (active)
COC(=O)c1[nH]c2cc(OC)ccc2c1NC(=O)CCN1CCSCC1,AC50,Cytochrome P450 2C9,22.4 µM (inconclusive)
CCC1CCCCN1c1cc(C)nc2cc(-c3cccc(C)c3)nn12 (configuration not stated),EC50,[3],6.17 µM (active)
same,EC50,Streptokinase A,15.3 µM (active)
same,EC50,Streptococcus,13.7 µM (active)
CCCN(CCO)Cc1ccc(F)c(Br)c1,AC50,Cytochrome P450 2C9,0.126 µM (inconclusive)
same,AC50,Cytochrome P450 1A2,15.8 µM (inconclusive)
Cc1ccccc1OCCn1cnc2cc([N+](=O)[O-])ccc2c1=O,EC50,[1],0.615 µM (active)
same,EC50,[2],> 30 µM (not active)
Cc1cc(N)n2ncc(-c3ccc(Cl)cc3)c2n1,AC50,Cytochrome P450 2C9,31.6 µM (inconclusive)
Cc1cc2c(=O)n(Cc3ccco3)c(SCC(=O)N3CCCc4ccccc43)nc2s1,EC50,[3],20.4 µM (active)
same,EC50,Streptokinase A,31.8 µM (active)
same,EC50,Streptococcus,> 150 µM (not active)
CC(C)CNc1nc(N)nc(O)c1NC=O,AC50,Cytochrome P450 2C19,inconclusive
CCn1ccnc1CN(C)Cc1cn(-c2ccc(C)cc2)nc1-c1cccc(C)c1,EC50,[1],1.92 µM (active)
same,EC50,[2],> 60 µM (not active)
CC1CCN(CCCCOc2ccccc2[N+](=O)[O-])CC1,AC50,Cytochrome P450 2C19; read-out: AC50,15.8 µM (inconclusive)
